{
  "source": "patent US11179412B2",
  "about": "“Methods of treating conditions involving elevated inflammatory response” (University of Pittsburgh—Of the Commonwealth System of …, priority 2017, dated 2021)",
  "key": {"IFNβ mRNA in THP1 cells": {"test_system": "IFNβ mRNA in THP1 cells", "test": "IFNβ mRNA Q-PCR, THP1 cells", "type": "cell-based, human", "details": "STING ligands 10 μg/ml, inhibitor 10 μM, 16 hours", "protocol": "(§1) Total RNA was extracted using QIAGEN RNeasy Plus Kit according to the manufacturer's instructions. First-strand cDNA was synthesized from 1 μg of RNA using the iScript cDNA Synthesis kit (#1708890, Bio-Rad). Briefly, 20 μl reactions were prepared by combining 4 μl iScript Select reaction mix, 2 μl gene-specific enhancer solution, 1 μl reverse transcriptase, 1 μl gene-specific assay pool (20×, 2 μM), and 12 μl RNA diluted in RNase-free water. Quantitative real-time PCR was carried out using synthesized cDNA, primers, and SsoFast EvaGreen Supermix (#172-5204, Bio-Rad). The expression of target genes was calculated using the ddCt method relative to the expression of a house-keeping gene, β-actin. Data shown are the relative quantity (RQ), with RQ of the control cells set to one."}, "IFNβ mRNA in iBMDMs": {"test_system": "IFNβ mRNA in iBMDMs", "test": "IFNβ mRNA Q-PCR, iBMDMs", "type": "cell-based, mouse", "details": "STING ligands 10 μg/ml, inhibitor 10 μM, 16 hours", "protocol": "as §1"}, "[1]": {"test_system": "STING activation (IFNβ release) in RAW264.7 cells", "test": "IFNβ release ELISA, RAW264.7 cells", "type": "cell-based, mouse", "details": "STING ligands 10 μg/ml, inhibitor 10 μM, 16 hours", "protocol": "(§2) Macrophages or monocytes were treated with 3′3′-cGAMP (10 μg/ml, Invitrogen) for 16 hours in the absence or presence of one compound (10 μM) from the Target-selective Inhibitory Library (#L3500, Selleck Chemicals). Commercially available enzyme-linked immunosorbent assay (ELISA) kits were used to measure the concentrations of mouse IFNβ (Thermo Fisher Scientific) or human IFNβ (Thermo Fisher Scientific) in culture medium according to the manufacturer's instructions."}, "[2]": {"test_system": "STING signaling (TBK1, IRF3, p65, ALK, EGFR, AKT phosphorylation) in THP1 cells", "test": "Western blot of STING pathway protein phosphorylation, THP1", "type": "cell-based, human", "details": "10 μM", "protocol": "(§3) For immunoblotting, cells were lysed in Cell Lysis Buffer (#9803, Cell Signaling Technology) with protease inhibitor cocktail (Promega), phosphatase inhibitor cocktail (Sigma), and 1 mM Na3VO4 (70). Cleared lysates were resolved by SDS-PAGE (#3450124, Bio-Rad) and then transferred onto PVDF membranes (#1704273, Bio-Rad). The membranes were blocked with Tris-buffered saline Tween 20 (TBST) containing 5% skim milk for 1 h at room temperature and then incubated with the indicated primary antibodies (1:1000-1:5000) overnight at 4° C. After being washed with TBST, the membranes were incubated with an HRP-linked anti-mouse IgG secondary antibody (#7076, Cell Signaling Technology) or HRP-linked anti-rabbit IgG secondary antibody (#7074, Cell Signaling Technology) for 1 h at room temperature. The membranes were washed three times in TBST and then visualized and analyzed with a ChemiDoc Touch Imaging System (#1708370, Bio-Rad). The intensities of bands were analyzed with Image Lab software."}, "[3]": {"test_system": "STING signaling (TBK1, IRF3, p65 phosphorylation) in J774A.1 cells", "test": "Western blot of STING pathway protein phosphorylation, J774A.1", "type": "cell-based, mouse", "details": "10 μM", "protocol": "as §3"}, "[4]": {"test_system": "STING activation (IFNβ release) in pPBMCs", "test": "IFNβ release ELISA, primary peripheral blood mononuclear cells (pPBMCs)", "type": "cell-based", "details": "human pPBMCs; 3′3′-cGAMP 10 μg/ml, 16 hours; compound 10 μM", "protocol": "as §2"}, "[5]": {"test_system": "STING signaling (TBK1, IRF3, p65, ALK, EGFR, AKT phosphorylation) in RAW264.7 cells", "test": "Western blot of STING pathway protein phosphorylation, RAW264.7", "type": "cell-based, mouse", "details": "10 μM", "protocol": "as §3"}, "[6]": {"test_system": "STING activation (IFNβ release) in iBMDMs", "test": "IFNβ release ELISA after STING ligand (or LPS) stimulation, iBMDMs", "type": "cell-based, mouse", "procedure,_shortened": "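iBMDMs were stimulated with a STING ligand such as 3′3′-cGAMP, or with LPS. Secreted IFNβ in culture medium was measured by commercial mouse or human IFNβ ELISA.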"}, "THP1 cells": {"test_system": "THP1 cells", "test": "Cell viability assay (CCK-8), THP1", "type": "cell-based, human", "details": "3′3′-cGAMP 10 μg/ml, ALK inhibitor 10 μM, 16 hours", "protocol": "Cells were seeded into 96-well plates and incubated with the indicated treatments. Subsequently, 100 μl fresh medium was added to cells containing 10 μl Cell Counting Kit-8 (CCK-8) solutions (Dojindo Laboratories) and incubated for 1 h (37° C., 5% CO2). Absorbance at 450 nm was measured using a microplate reader (Tecan)."}, "[7]": {"details": "3′3′-cGAMP 10 μg/ml, three to 16 hours"}, "[8]": {"details": "3′3′-cGAMP or c-di-AMP 10 μg/ml, 16 hours"}},
  "note": "Entries after “also recorded” stand apart in the source; their conditions may differ.",
  "data": [
    {"smiles": "Cc1cc(Nc2ncc(Cl)c(Nc3ccccc3S(=O)(=O)C(C)C)n2)c(OC(C)C)cc1C1CCNCC1", "note": "[LDK378, 5-chloro-N^2-(2-isopropoxy-5-methyl-4-(piperidin-4-yl)phenyl)-N^4-[2-(propane-2-sulfonyl)-phenyl]-pyrimidine-2,4-diamine]", "values": [
      {"measurement": "STING ligand-induced IFNβ mRNA expression", "setting": "IFNβ mRNA in THP1 cells", "result": "attenuation"},
      {"measurement": "STING ligand-induced IFNβ mRNA expression", "setting": "IFNβ mRNA in iBMDMs", "result": "attenuation"},
      {"measurement": "IFNβ release induced by STING ligands", "setting": "[1]", "result": "inhibited"},
      {"measurement": "3′3′-cGAMP-induced p-TBK1", "setting": "[2]; [7]", "result": "time-dependently reduced"},
      {"measurement": "STING ligand-induced phosphorylation of TBK1, IRF3, and p65", "setting": "[2]; [8]", "result": "diminished"},
      {"measurement": "3′3′-cGAMP-, c-di-AMP-, and DMXAA-induced p-IRF3 and p-p65", "setting": "[2]; ligand 10 μg/ml", "result": "inhibited"},
      {"measurement": "c-di-AMP- or DMXAA-induced p-TBK1", "setting": "[2]; ligand 10 μg/ml, 16 hours", "result": "inhibited"},
      {"measurement": "3′3′-cGAMP- or c-di-AMP-induced phosphorylation of ALK, EGFR, and AKT", "setting": "[2]; ligand 10 μg/ml, 16 hours", "result": "attenuated"},
      {"measurement": "3′3′-cGAMP-induced p-TBK1", "setting": "[3]; [7]", "result": "time-dependently reduced"},
      {"measurement": "3′3′-cGAMP-, c-di-AMP-, and DMXAA-induced p-IRF3 and p-p65", "setting": "[3]; ligand 10 μg/ml", "result": "inhibited"},
      {"measurement": "c-di-AMP- or DMXAA-induced p-TBK1", "setting": "[3]; ligand 10 μg/ml, 16 hours", "result": "inhibited"},
      {"measurement": "3′3′-cGAMP-induced IFNβ release", "setting": "[4]", "result": "confirmed their inhibitory properties"},
      {"measurement": "3′3′-cGAMP-induced p-TBK1", "setting": "[5]; [7]", "result": "time-dependently reduced"},
      {"measurement": "STING ligand-induced phosphorylation of TBK1, IRF3, and p65", "setting": "[5]; [8]", "result": "diminished"},
      {"measurement": "3′3′-cGAMP-, c-di-AMP-, and DMXAA-induced p-IRF3 and p-p65", "setting": "[5]; ligand 10 μg/ml", "result": "inhibited"},
      {"measurement": "c-di-AMP- or DMXAA-induced p-TBK1", "setting": "[5]; ligand 10 μg/ml, 16 hours", "result": "inhibited"},
      {"measurement": "3′3′-cGAMP- or c-di-AMP-induced phosphorylation of ALK, EGFR, and AKT", "setting": "[5]; ligand 10 μg/ml, 16 hours", "result": "attenuated"},
      {"measurement": "fold increase in IFN-β release", "setting": "[6]", "result": 0.08, "unit": "fold"},
      {"measurement": "3′3′-cGAMP-induced IFNβ release", "setting": "[6]; iBMDMs, 3′3′-cGAMP 10 μg/ml, 16 hours, compound 10 μM", "result": "blocked; also recorded: diminished"},
      {"measurement": "LPS-induced IFNβ release", "setting": "[6]; iBMDMs, LPS 1 μg/ml, LDK378 10 μM, three hours", "result": "inhibited"},
      {"measurement": "IFNβ release induced by STING ligands", "setting": "[6]; iBMDMs, STING ligands 10 μg/ml, inhibitor 10 μM, 16 hours", "result": "inhibited"},
      {"measurement": "cell viability", "setting": "THP1 cells", "result": "did not affect cell viability"}
    ]}
  ]
}
